# Measured values taken from US11633415B2, “Compounds and methods useful for treating or preventing cancers” (priority 2017, dated 2023).
# Biological target: CSNK1A1 (Homo sapiens (Human), UniProt P48729)
# Experiment: Kinase enzymatic IC50 (Carna Biosciences mobility shift assay)
# Type: biochemical
# Conditions: Table 1, CSNK1A1 inhibitors; read-out: IC50
# Description: (§1) Enzymatic assays were performed using a mobility shift assay on the LabChip system. Purified kinase protein was incubated with ATP, substrate, and assay buffer (20 mM Hepes—pH 7.5; 5 mM MgCl2, and 0.01% Triton X-100). The assay reaction was initiated with 5 μM ATP and with each compound present. Compounds were tested at the KM,ATP for the protein target (GST-tagged full-length human CK1α, available from Carna Biosciences, Japan) or over a range of ATP concentrations between 5 μM and 9 μM. […] AC50 values were determined using phosphorylated and unphosphorylated substrates.
# Chain of CSNK1A1 (P48729 whole entry): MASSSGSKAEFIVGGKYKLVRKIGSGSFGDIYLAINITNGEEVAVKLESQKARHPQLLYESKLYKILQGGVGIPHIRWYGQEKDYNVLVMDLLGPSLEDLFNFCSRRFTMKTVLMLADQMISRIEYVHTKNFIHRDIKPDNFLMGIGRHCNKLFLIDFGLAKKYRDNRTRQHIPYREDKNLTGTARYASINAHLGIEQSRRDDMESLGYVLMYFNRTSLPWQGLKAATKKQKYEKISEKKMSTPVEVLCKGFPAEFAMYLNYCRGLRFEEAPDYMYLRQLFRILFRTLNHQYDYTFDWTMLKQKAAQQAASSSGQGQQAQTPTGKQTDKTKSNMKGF
row,Structure (SMILES),IC50 [µM]
1,"CN1CCN(c2nc3ccccc3nc2C(C#N)C(=O)OCC(C)(C)C)CC1 (centres unmarked) [2,2 dimethyl propyl 2-cyano-2-(3-(4-(methylpiperazin-1-yl)quinoxalin-2-yl)acetate]",0.715
2,"CC(C)(C)COC(=O)C(C#N)c1nc2ccccc2nc1N1CCNCC1 (centres unmarked) [2,2 dimethyl propyl 2-cyano-2-(3-(4-(piperazin-1-yl)quinoxalin-2-yl)acetate]",0.21
3,CCC(CC)COC(=O)C(C#N)c1nc2ccccc2nc1N1CCC(N)CC1 (centres unmarked) [2-ethylbutyl 2-cyano-2-(3-(4-(amino)piperidin-1-yl)quinoxalin-2-yl)acetate],3.32
4,CCC(CC)COC(=O)C(C#N)c1nc2ccccc2nc1N1CCC(CN)CC1 (centres unmarked) [2-ethylbutyl 2-cyano-2-(3-(4-(aminomethyl)piperidin-1-yl)quinoxalin-2-yl)acetate],1.75
5,CCC(CC)COC(=O)C(C#N)c1nc2ccccc2nc1N1CCN(C)CC1 (centres unmarked) [2-ethylbutyl 2-cyano-2-(3-(4-(methylpiperazin-1-yl)quinoxalin-2-yl)acetate],0.399
6,CCC(CC)COC(=O)C(C#N)c1nc2ccccc2nc1N1CCNCC1 (centres unmarked) [2-ethylbutyl 2-cyano-2-(3-(4-(piperazin-1-yl)quinoxalin-2-yl)acetate],0.094
7,N#CC(C(=O)OCc1ccccc1F)c1nc2ccccc2nc1N1CCNCC1 (centres unmarked) [2-fluorobenzyl 2-cyano-2-(3-(4-(piperazin-1-yl)quinoxalin-2-yl)acetate],1.88
8,N#CC(C(=O)OCc1cccc(N)c1)c1nc2ccccc2nc1N1CCNCC1 (centres unmarked) [3-aminobenzyl 2-cyano-2-(3-(4-(piperazin-1-yl)quinoxalin-2-yl)acetate],4.13
9,N#CC(C(=O)OCc1cccc(F)c1)c1nc2ccccc2nc1N1CCNCC1 (centres unmarked) [3-fluorobenzyl 2-cyano-2-(3-(4-(piperazin-1-yl)quinoxalin-2-yl)acetate],0.268
10,CN1CCN(c2nc3ccccc3nc2C(C#N)C(=O)OCc2ccc(F)cc2)CC1 (centres unmarked) [4-fluorobenzyl 2-cyano-2-(3-(4-(methylpiperazin-1-yl)quinoxalin-2-yl)acetate],2.89
11,N#CC(C(=O)OCc1ccc(F)cc1)c1nc2ccccc2nc1N1CCNCC1 (centres unmarked) [4-fluorobenzyl 2-cyano-2-(3-(4-(piperazin-1-yl)quinoxalin-2-yl)acetate],1.29
12,"Nc1ncnc2c1c(COc1cccc(Cl)c1)nn2C1CCOCC1 [PF4800567, 3-(3-chloro-phenoxymethyl)-1-(tetrahydro-pyran-4-yl)-1H-pyrazolo[3,4-d]pyrimidin-4-ylamine, reference compound]",0.857
13,N#CC(C(=O)OCc1ccccc1)c1nc2ccccc2nc1N1CCC(N)CC1 (centres unmarked) [benzyl 2-(3-(4-aminopiperidin-1-yl)quinoxalin-2-yl)-2-cyanoacetate],1.89
14,CNC1CCN(c2nc3ccccc3nc2C(C#N)C(=O)OCc2ccccc2)CC1 (centres unmarked) [benzyl 2-cyano-2-(3-(4-(methylamino)piperidin-1-yl)quinoxalin-2-yl)acetate],4.39
15,"CCC(CC)COC(=O)C(C#N)c1nc2ccccc2nc1N1CCN(CC)CC1 (centres unmarked) [compound 3, 2-ethylbutyl 2-cyano-2-(3-(4-ethylpiperazin-1-yl)quinoxalin-2-yl)acetate]",5
16,"CN1CCN(c2nc3ccccc3nc2C(C#N)C(=O)OC2CCCCC2)CC1 (centres unmarked) [compound 4, cyclohexyl 2-cyano-2-(3-(4-methylpiperazin-1-yl)quinoxalin-2-yl)acetate]",3.18

# Same assay, conditions: known inhibitors, background text (rounded Table 1 values); read-out: IC50 against CSNK1A1
row,Structure (SMILES),IC50 [µM]
1,"Nc1ncnc2c1c(COc1cccc(Cl)c1)nn2C1CCOCC1 [PF4800567, 3-(3-chloro-phenoxymethyl)-1-(tetrahydro-pyran-4-yl)-1H-pyrazolo[3,4-d]pyrimidin-4-ylamine, reference compound]",0.86

# Biological target: GST-tagged full-length human CK1α (Homo sapiens (Human), UniProt P48729)
# Sequence (P48729 whole entry): as above
# Experiment: Kinase enzymatic assay, mobility shift on LabChip system (AC50)
# Type: biochemical
# Conditions: mean AC50; 5 μM ATP; 1 μM Profiler Pro FL-Peptide 16 substrate
# Description: as §1
row,Structure (SMILES),AC50 [µM]
1,CCC(CC)COC(=O)C(C#N)c1nc2ccccc2nc1N1CCNC(C(C)C)C1 (centres unmarked),1.39
2,CCC(CC)COC(=O)C(C#N)c1nc2ccccc2nc1N1CCNC(Cc2ccccc2)C1 (centres unmarked),1.27
3,N#CC(C(=O)OCC1CCCCCC1)c1nc2ccccc2nc1N1CCNCC1 (centres unmarked),0.355
4,CN1CCN(c2nc3ccccc3nc2C(C#N)C(=O)OCC2CCCCC2)CC1 (centres unmarked),0.029
5,CCC(CC)COC(=O)C(C#N)c1nc2ccccc2nc1N1CCNC(C)(C)C1 (centres unmarked),0.159
6,CC(C)COC(=O)C(C#N)c1nc2ccccc2nc1N1CCC(C(N)=O)CC1 (centres unmarked),4.64
7,N#CC(C(=O)OCc1ccncc1)c1nc2ccccc2nc1N1CCNCC1 (centres unmarked),0.468
8,N#CC(C(=O)OCC1CCCC1)c1nc2ccccc2nc1N1CCNCC1 (centres unmarked),0.138
9,CCC(CC)COC(=O)C(C#N)c1nc2ccccc2nc1N1CCNC(c2ccccc2)C1 (centres unmarked),2.22
10,CCC(CC)COC(=O)C(C#N)c1nc2ccccc2nc1N1CCN[C@@H](C)C1 (some centres unmarked),1.22
11,CCC(CC)COC(=O)C(C#N)c1nc2ccccc2nc1N1CCNC(CC)C1 (centres unmarked),0.958
12,CCC(CC)COC(=O)C(C#N)c1nc2ccccc2nc1N1CCNC(CO)C1 (centres unmarked),0.517
13,N#CC(C(=O)OCC1CCCCC1)c1nccnc1N1CCNCC1 (centres unmarked),0.304
14,CCC(CC)COC(=O)C(C#N)c1nc2ccccc2nc1N1CCNC(C(=O)OC)C1 (centres unmarked),3.15
15,CCC(CC)COC(=O)C(C#N)c1nc2ccccc2nc1NC1CCNCC1 (centres unmarked),1.33
16,CCC(CC)COC(=O)C(C#N)c1nc2ccccc2nc1N1CCNC(=O)C1 (centres unmarked),1.74
17,N#CC(C(=O)NCC1CCCCC1)c1nc2ccccc2nc1N1CCNCC1 (centres unmarked),1.76
18,N#CC(C(=O)OCc1cccnc1)c1nc2ccccc2nc1N1CCNCC1 (centres unmarked),0.95
19,N#CC(C(=O)OCC1CCCCC1)c1nc2ccccc2nc1N1CCNCC1 (centres unmarked),0.02
20,CCC(CC)COC(=O)C(C#N)c1nc2ccccc2nc1N1CCNC(C)C1 (centres unmarked),0.434
21,N#CC(C(=O)OCc1ccc2ccccc2c1)c1nc2ccccc2nc1N1CCNCC1 (centres unmarked),3.87
22,CCC(CC)COC(=O)C(C#N)c1nc2ccccc2nc1N1CCN[C@H](C)C1 (some centres unmarked),0.333
23,N#C/C(C(=O)OCC1CCCCC1)=C1/Nc2c(F)cccc2N=C1N1CCNCC1,1.14
24,N#C/C(C(=O)OCC1CCCCC1)=C1/Nc2ccc(F)cc2N=C1N1CCNCC1,0.065
25,N#C/C(C(=O)OCC1CCCCC1)=C1/Nc2ccc(-c3ccccc3F)cc2N=C1N1CCNCC1,0.043
26,N#C/C(C(=O)OCC1CCCCC1)=C1/Nc2ccc(-c3ccccc3O)cc2N=C1N1CCNCC1,0.043

row,Structure (SMILES),AC50 [µM]
1,N#C/C(C(=O)NCc1ccccc1)=C1/Nc2ccccc2N=C1N1CCNCC1,1.92
2,N#C/C(C(=O)OCC1CCCCC1)=C1/Nc2cccc(F)c2N=C1N1CCNCC1,0.405
3,N#C/C(C(=O)OCC1CCCCC1)=C1/Nc2ccc([N+](=O)[O-])cc2N=C1N1CCNCC1,0.158
4,N#C/C(C(=O)OCC1CCCCC1)=C1/Nc2ccc(-c3ccccc3)cc2N=C1N1CCNCC1,0.27
5,N#C/C(C(=O)OCC1CCCCC1)=C1\C=C(N2CCNCC2)N=CN1,3.78
6,N#C/C(C(=O)OCC1CCCCC1)=C1/Nc2ccc(-c3ccc(O)cc3)cc2N=C1N1CCNCC1,0.013
7,N#C/C(C(=O)OCC1CCCCC1)=C1/Nc2ccc(-c3cccc(F)c3)cc2N=C1N1CCNCC1,0.108
8,N#C/C(C(=O)OCC1CCCCC1)=C1/Nc2ccccc2C=C1N1CCNCC1,1.33
9,N#C/C(C(=O)OCC1CCCCC1)=C1/Nc2ccc(-c3ccc(F)cc3)cc2N=C1N1CCNCC1,0.074
10,N#C/C(C(=O)OCC1CCCCC1)=C1/NC=NC=C1N1CCNCC1,0.467
11,N#C/C(C(=O)CCC1CCCCC1)=C1/Nc2ccccc2N=C1N1CCNCC1,3.15
12,CN1CCN(c2nc3ccccc3nc2C(C#N)C(=O)OC2CCCCC2)CC1 (centres unmarked) [drawing 113],3.5
13,CC(C)(C)COC(=O)C(C#N)c1nc2ccccc2nc1N1CCNCC1 (centres unmarked) [drawing 115],0.151
14,CN1CCN(c2nc3ccccc3nc2C(C#N)C(=O)OCC(C)(C)C)CC1 (centres unmarked) [drawing 117],0.822
15,N#CC(C(=O)OCc1ccccc1F)c1nc2ccccc2nc1N1CCNCC1 (centres unmarked) [drawing 123],1.51
16,CCC(CC)COC(=O)C(C#N)c1nc2ccccc2nc1N1CCC(CN)CC1 (centres unmarked) [drawing 124],2.6
17,CCC(CC)COC(=O)C(C#N)c1nc2ccccc2nc1N1CCC(N)CC1 (centres unmarked) [drawing 126],4.22
18,N#CC(C(=O)OCc1ccc(F)cc1)c1nc2ccccc2nc1N1CCNCC1 (centres unmarked) [drawing 129],2.73
19,N#CC(C(=O)OCc1ccccc1)c1nc2ccccc2nc1N1CCC(N)CC1 (centres unmarked) [drawing 131],1.82
20,N#CC(C(=O)OCc1cccc(F)c1)c1nc2ccccc2nc1N1CCNCC1 (centres unmarked) [drawing 134],0.353
21,N#CC(C(=O)OCc1cccc(N)c1)c1nc2ccccc2nc1N1CCNCC1 (centres unmarked) [drawing 141],3.8
22,CCC(CC)COC(=O)C(C#N)c1nc2ccccc2nc1N1CCN(C)CC1 (centres unmarked) [drawing 142],1.34
23,CN1CCN(c2nc3ccccc3nc2C(C#N)C(=O)OCc2ccc(F)cc2)CC1 (centres unmarked) [drawing 146],2.04
24,CNC1CCN(c2nc3ccccc3nc2C(C#N)C(=O)OCc2ccccc2)CC1 (centres unmarked) [drawing 147],3.65
25,CCC(CC)COC(=O)C(C#N)c1nc2ccccc2nc1N1CCNCC1 (centres unmarked) [drawing 149],1.94

# System: colorectal carcinoma cell line HT29
# Experiment: Cell viability assay, HT29
# Type: cell-based
# Conditions: Homo sapiens, HT-29; HT29, 72 hours from plating (48 hours from compound administration)
# Description: Cell viability assays were conducted against colorectal carcinoma cell line HT29. Cells were plated in wells and at 24 hours after plating, compounds were added to determine their effect on cell viability at various dosages. After 48 hours from compound administration, the cell viability was determined and the IC50 values were calculated. […] FIG. 4B illustrates the results of another cell viability measurement and IC50 value for Compound 1 assessed by ATP abundance on HT29 at 5 days.
row,Structure (SMILES),IC50 [µM]
1,CCC(CC)COC(=O)C(C#N)c1nc2ccccc2nc1N1CCNC(C)(C)C1 (centres unmarked),2.13
2,CN1CCN(c2nc3ccccc3nc2C(C#N)C(=O)OCc2ccccc2)CC1 (centres unmarked),56.8
3,N#CC(C(=O)OCC1CCCCC1)c1nc2ccccc2nc1N1CCNCC1 (centres unmarked),3.78
4,N#C/C(C(=O)OCC1CCCCC1)=C1/Nc2ccc(-c3ccccc3F)cc2N=C1N1CCNCC1,1.9
5,N#C/C(C(=O)OCC1CCCCC1)=C1/Nc2ccc(-c3ccccc3O)cc2N=C1N1CCNCC1,0.837
6,N#C/C(C(=O)OCC1CCCCC1)=C1/Nc2ccc(-c3ccc(O)cc3)cc2N=C1N1CCNCC1,0.472
7,N#C/C(C(=O)OCC1CCCCC1)=C1/Nc2ccc(-c3cccc(F)c3)cc2N=C1N1CCNCC1,2.31
8,N#C/C(C(=O)OCC1CCCCC1)=C1/Nc2ccc(-c3ccc(F)cc3)cc2N=C1N1CCNCC1,1.78
9,N#C/C(C(=O)OCC1CCCCC1)=C1/Nc2cc(N)ccc2N=C1N1CCNCC1,3.71
10,N#C/C(C(=O)OCC1CCCCC1)=C1/Nc2cccc(N)c2N=C1N1CCNCC1,5.46
11,CN1CCN(c2nc3ccccc3nc2C(C#N)C(=O)OC2CCCCC2)CC1 (centres unmarked) [drawing 113],10000
12,CCN1CCN(c2nc3ccccc3nc2C(C#N)C(=O)OC2CCCCC2)CC1 (centres unmarked) [drawing 166],17.4
